Reference: paper PMC2074382 (British Journal of Cancer, 1996)
Where a name gives a salt, the structure may show the parent alone.

Test system: patients with a solid tumour
Experiment: Phase I study, toxicity (CTC criteria) of GI147211 30 min i.v. infusion daily x 5 every 3 weeks
Assay type: in vivo, human
Description: British Journal of Cancer (1996) 73, 744-750 O (C? 1996 Stockton Press All rights reserved 0007-0920/96 $12.00 Phase I and pharmacological study of the new topoisomerase I inhibitor G1147211, using a daily x 5 intravenous administration CJH Gerrits', GJ Creemers', JHM Schellens', P Wissel2, AS Th Planting', R Kunka2, K Selinger2, M de Boer-Dennert', Y Marijnen3, M Harteveld' and J Verweijl 'Department of Medical Oncology, Rotterdam Cancer Institute, Rotterdam, The Netherlands; 2Glaxo Wellcome Inc, Department of Clinical Pharmacology, NC, USA; 3Glaxo Wellcome Inc, Department of Clinical Research, Zeist, The Netherlands. Summary Topoisomerase I inhibitors are interesting anti-cancer agents with a novel mechanism of action. […] In subsequent patient cohorts the dose was escalated from 0.3 to 1.5 mg m-2 day-'. Pharmacokinetics analysis was performed on days 1 and 4 of the first course using a validated high- performance liquid chromatographic assay and non-compartmental methods. […] Its further development was stopped because of unpredictable and severe myelosuppression, gastrointestinal toxicity and haemorrhagic cystitis. In the late 1980s two discoveries brought about a renewal of interest in CPT; firstly, topoisomerase I was identified as the single cellular target of CPT (Hsiang et al., 1985; Hsiang and Liu, 1988) and, secondly, an overexpression of topoisomerase I was found in various tumour cell lines but not in normal tissues (Giovanella et al., 1989; Hirabayaski et al., 1992; Potmesil et al., 1988). Topoisomerase I is a nuclear enzyme that resolves topological problems of the torsionally strained (supercoiled) DNA (Slichenmyer et al., 1993). This is achieved by forming a covalent adduct between topoisome- rase I and the DNA, termed the cleavable complex. This catalytic intermediate creates single-strand DNA breaks, allowing the DNA molecule to rotate around the intact DNA strand at the cleavage site, leading to a relaxation of the DNA molecule and in this way replication, transcription and other DNA functions can proceed. These enzyme- bridged breaks are then resealed by topoisomerase I. CPT stabilises the cleavable complexes, thereby preventing resealing of single-strand DNA breaks in the presence of the drug (Covey et al., 1989; D'Arpa and Liu, 1989; Eng et al., 1988). Cytotoxicity is specific to the S-phase of the cell cycle because the double-strand breaks that occur during this phase are more difficult to repair in the presence of the drug (Horwitz and Horwitz, 1973). […] Other eligibility criteria included: (1) age>, 18 years; (2) an Eastern Cooperative Oncology Group (ECOG) performance status <2; (3) a predicted life expectancy of at least 3 months; (4) no previous anti-cancer therapy for at least 3 weeks (6 weeks for previous nitro- soureas or mitomycin C); (5) adequate haemato- poietic (WBC) 3 x 109 -', ANC > 1.5 x 109 1-' and platelets 100 x 10 1- 1), hepatic (bilirubin within normal limits, AST, ALT and/or alkaline phosphatase < 2.0 x normal), and renal (serum creatinine < 130 imol 1-') functions. All patients gave written informed consent.

[1] = 0.3 mg m-2 day-1, 3 patients, 10 evaluable courses
[2] = 0.6 mg m-2 day-1, 3 patients, 18 evaluable courses
[3] = 0.9 mg m-2 day-1, 3 patients, 9 evaluable courses
[4] = 1.2 mg m-2 day-1, 6 patients, 15 evaluable courses
[5] = 1.2 mg m-2 day-1, n=6, Table III
[6] = 1.2 mg m-2 day-1, n=7, Table III
[7] = 1.5 mg m-2 day-1, 6 patients, 15 evaluable courses
[8] = 1.5 mg m-2 day-1, n=7, Table III
[9] = 1.5 mg m-2 day-1, n=13, Table III

CC[C@@]1(O)C(=O)OCc2c1cc1n(c2=O)Cc2c-1nc1cc3c(cc1c2CN1CCN(C)CC1)OCCO3 [GI147211, [7 - (methylpiperazinomethylene) - 10,11 - ethylene-dioxy-20(S)] camptothecin dihydrochloride]
Leucocytes CTC grade 1, number of courses [1]: 0 | Leucocytes CTC grade 2, number of courses [1]: 0 | Leucocytes CTC grade 3, number of courses [1]: 0 | Leucocytes CTC grade 4, number of courses [1]: 0 | Neutrophils CTC grade 1, number of courses [1]: 0 | Neutrophils CTC grade 2, number of courses [1]: 0 | Neutrophils CTC grade 3, number of courses [1]: 0 | Neutrophils CTC grade 4, number of courses [1]: 0 | Platelets CTC grade 1, number of courses [1]: 0 | Platelets CTC grade 2, number of courses [1]: 0 | Platelets CTC grade 3, number of courses [1]: 0 | Platelets CTC grade 4, number of courses [1]: 0 | Leucocytes CTC grade 1, number of courses [2]: 8 | Leucocytes CTC grade 2, number of courses [2]: 0 | Leucocytes CTC grade 3, number of courses [2]: 0 | Leucocytes CTC grade 4, number of courses [2]: 0 | Neutrophils CTC grade 1, number of courses [2]: 4 | Neutrophils CTC grade 2, number of courses [2]: 1 | Neutrophils CTC grade 3, number of courses [2]: 0 | Neutrophils CTC grade 4, number of courses [2]: 0 | Platelets CTC grade 1, number of courses [2]: 1 | Platelets CTC grade 2, number of courses [2]: 0 | Platelets CTC grade 3, number of courses [2]: 0 | Platelets CTC grade 4, number of courses [2]: 0 | Leucocytes CTC grade 1, number of courses [3]: 3 | Leucocytes CTC grade 2, number of courses [3]: 1 | Leucocytes CTC grade 3, number of courses [3]: 1 | Leucocytes CTC grade 4, number of courses [3]: 0 | Neutrophils CTC grade 1, number of courses [3]: 0 | Neutrophils CTC grade 2, number of courses [3]: 4 | Neutrophils CTC grade 3, number of courses [3]: 1 | Neutrophils CTC grade 4, number of courses [3]: 0 | Platelets CTC grade 1, number of courses [3]: 4 | Platelets CTC grade 2, number of courses [3]: 2 | Platelets CTC grade 3, number of courses [3]: 1 | Platelets CTC grade 4, number of courses [3]: 0 | ANC nadir, range (1.2 mg m-2 day-1): 0.08-5.6 x 109 l-1 | grade 3-4 neutropenia, courses (1.2 mg m-2 day-1): 7/15 | grade 3-4 thrombocytopenia, courses (1.2 mg m-2 day-1): 6/15 | median ANC nadir (1.2 mg m-2 day-1): 1.29e+09 L⁻¹ | median platelet nadir (1.2 mg m-2 day-1): 7.4e+10 L⁻¹ | platelet nadir, range (1.2 mg m-2 day-1): 33-379 x 109 l-1 | subsequent courses postponed owing to prolonged myelosuppression (1.2 mg m-2 day-1): 6/15 | Leucocytes CTC grade 1, number of courses [4]: 1 | Leucocytes CTC grade 2, number of courses [4]: 1 | Leucocytes CTC grade 3, number of courses [4]: 4 | Leucocytes CTC grade 4, number of courses [4]: 2 | Neutrophils CTC grade 1, number of courses [4]: 2 | Neutrophils CTC grade 2, number of courses [4]: 2 | Neutrophils CTC grade 3, number of courses [4]: 1 | Neutrophils CTC grade 4, number of courses [4]: 6 | Platelets CTC grade 1, number of courses [4]: 0 | Platelets CTC grade 2, number of courses [4]: 1 | Platelets CTC grade 3, number of courses [4]: 6 | Platelets CTC grade 4, number of courses [4]: 0 | Day nadir, thrombocytopenia (range) [5]: 15 (10-19) day | Median day of occurrence of grade 3-4 thrombocytopenia (range) [5]: 15 (15-15) day | Median number of days from grade 3-4 to recovery > grade 2 thrombocytopenia (range) [5]: 7 (2-8) days | Day nadir, neutropenia (range) [6]: 22 (13-22) day | Median day of occurrence of grade 3-4 neutropenia (range) [6]: 15 (10-19) day | Median number of days from grade 3-4 to recovery > grade 2 neutropenia (range) [6]: 10 (1_10) days | ANC nadir, range (1.5 mg m-2 day-1): 0.01-1.7 x 109 l-1 | grade 3-4 neutropenia, courses (1.5 mg m-2 day-1): 13/15 | grade 3-4 neutropenia, per cent of courses (1.5 mg m-2 day-1): 86% | median ANC nadir (1.5 mg m-2 day-1): 9e+07 L⁻¹ | median platelet nadir (1.5 mg m-2 day-1): 6.2e+10 L⁻¹ | platelet nadir, range (1.5 mg m-2 day-1): 10-116 x 109 l-1 | thrombocytopenia complicated by gastrointestinal bleeding (1.5 mg m-2 day-1): two | thrombocytopenia grade 3-4, courses (1.5 mg m-2 day-1): 7/15 | thrombocytopenia grade 3-4, per cent of courses (1.5 mg m-2 day-1): 46% | treatment delay, courses (1.5 mg m-2 day-1): 5 of the 15 courses | Leucocytes CTC grade 1, number of courses [7]: 0 | Leucocytes CTC grade 2, number of courses [7]: 9 | Leucocytes CTC grade 3, number of courses [7]: 3 | Leucocytes CTC grade 4, number of courses [7]: 3 | Neutrophils CTC grade 1, number of courses [7]: 2 | Neutrophils CTC grade 2, number of courses [7]: 0 | Neutrophils CTC grade 3, number of courses [7]: 2 | Neutrophils CTC grade 4, number of courses [7]: 11 | Platelets CTC grade 1, number of courses [7]: 2 | Platelets CTC grade 2, number of courses [7]: 6 | Platelets CTC grade 3, number of courses [7]: 4 | Platelets CTC grade 4, number of courses [7]: 3 | Day nadir, thrombocytopenia (range) [8]: 15 (13 15) day | Median day of occurrence of grade 3-4 thrombocytopenia (range) [8]: 15 (10-15) day | Median number of days from grade 3-4 to recovery > grade 2 thrombocytopenia (range) [8]: 8 (5-12) days | Day nadir, neutropenia (range) [9]: 15 (13 -22) day | Median day of occurrence of grade 3-4 neutropenia (range) [9]: 10 (5-25) day | Median number of days from grade 3-4 to recovery > grade 2 neutropenia (range) [9]: 11 (4-25) days | infectious complications (1.5 mg m-2 day-1, two life-threatening septic): Three | maximal tolerated dose (30 min i.v. infusion daily x 5, every 3 weeks): 1.2 mg m-2 day-1 | severity of nausea and vomiting (CTC grade): never worse than grade 1-2 | cumulative myelotoxicity (all dose levels): not observed | mild headache, courses (all dose levels): eight | mild headache, per cent of courses (all dose levels): 12% | nausea, per cent of given courses (all dose levels): 44% | other non-haematological toxicities (all dose levels): no diarrhoea, mucositis, liver or renal toxicity | vomiting, per cent of given courses (all dose levels): 22% | nausea, number of given courses (all dose levels, 67 courses): 30 courses | vomiting, number of given courses (all dose levels, 67 courses): 15 courses | dose-limiting toxicities (at 1.5 mg m-2 day-1): neutropenia and thrombocytopenia | myelotoxicity (first two dose levels (0.3, 0.6 mg m-2 day-1)): No myelotoxicity | alopecia grade 1 (highest two dose levels): three | anaemia (in vivo): occurred frequently but was never severe | recommended dose for phase II studies (x 5 every 3 weeks): 1.2 mg m-2
